According to ChEMBL document CHEMBL1156829 (Proc Natl Acad Sci U S A, 2008):

Key:
[1] = NOVARTIS: Cytotoxicity against human hepatocellular carcinoma cell line (Huh7); format: toxicity, cell-based, Huh-7; details: Huh7 cells (hepatocellular carcinoma cell line)
Plasmodium falciparum [2] = test: NOVARTIS: Inhibition of Plasmodium falciparum 3D7 (drug-susceptible) proliferation in erythrocyte-based infection assay; format: functional, organism-based; details: Plasmodium falciparum, 3D7
Plasmodium falciparum [3] = test: NOVARTIS: Inhibition of Plasmodium falciparum W2 (drug-resistant) proliferation in erythrocyte-based infection assay; format: functional, organism-based; details: Plasmodium falciparum, W2; read-out: EC50

C=CC1CN2CCC1CC2C(O)c1ccnc2ccccc12 (stereo unspecified)
CC50 [1]: > 100000 nM | EC50 (Plasmodium falciparum [2]): 43.5 nM | EC50 (Plasmodium falciparum [3]): 84.1 nM

Nc1ccnc2cc(Cl)ccc12
CC50 [1]: 72000 nM | EC50 (Plasmodium falciparum [2]): 415 nM | EC50 (Plasmodium falciparum [3]): 57.6 nM

CC(C)C[C@H](NC(=O)N1CCOCC1)C(=O)N[C@H](/C=C/S(=O)(=O)c1ccccc1)CCc1ccccc1
CC50 [1]: 48800 nM | EC50 (Plasmodium falciparum [2]): 210 nM | EC50 (Plasmodium falciparum [3]): 37.7 nM

C=CCNc1cc(-c2ccccn2)nc(-c2ccccn2)n1
CC50 [1]: > 10000 nM | EC50 (Plasmodium falciparum [2]): 125 nM | EC50 (Plasmodium falciparum [3]): 192 nM

COc1cc(C(=O)NC2CC2)ccc1OC1CCN(CC(c2ccccc2)c2ccccc2)CC1
CC50 [1]: 23500 nM | EC50 (Plasmodium falciparum [2]): 44.4 nM | EC50 (Plasmodium falciparum [3]): 18.5 nM

c1ccc(CCNc2cccc3ccccc23)cc1
CC50 [1]: > 10000 nM | EC50 (Plasmodium falciparum [2]): 128 nM | EC50 (Plasmodium falciparum [3]): < 7.52 nM

COc1cncc(-c2cncc(-c3ccc(C)cc3)n2)c1
CC50 [1]: > 100000 nM | EC50 (Plasmodium falciparum [2]): 94.9 nM | EC50 (Plasmodium falciparum [3]): 85.2 nM

CC1CCC2C(C)C(=O)OC3OC(C)C4CC1C32OO4 (stereo unspecified)
CC50 [1]: > 10000 nM | EC50 (Plasmodium falciparum [2]): 19.1 nM | EC50 (Plasmodium falciparum [3]): 7.62 nM

CCOc1ccc(N(CC)S(=O)(=O)c2cc(Br)cc3c2N(C(C)=O)CC3)cc1
CC50 [1]: > 100000 nM | EC50 (Plasmodium falciparum [2]): 125 nM | EC50 (Plasmodium falciparum [3]): 76.1 nM

COc1cccc(-c2ccc(O)c(CNC3CCCCCCC3)c2)n1
CC50 [1]: 23100 nM | EC50 (Plasmodium falciparum [2]): 71.9 nM | EC50 (Plasmodium falciparum [3]): 20.3 nM

C=C[C@H]1CN2CC[C@H]1C[C@H]2[C@H](OC(=O)c1ccc(F)cc1)c1ccnc2ccccc12
CC50 [1]: > 10000 nM | EC50 (Plasmodium falciparum [2]): 777 nM | EC50 (Plasmodium falciparum [3]): < 8.08 nM

Cc1ccc(OCCCCCCNCCO)c(C)c1
CC50 [1]: 20400 nM | EC50 (Plasmodium falciparum [2]): 1970 nM | EC50 (Plasmodium falciparum [3]): 391 nM

COc1cccc(-c2ccc(O)c(CNC(C)c3cccc4ccccc34)c2)n1 (stereo unspecified)
CC50 [1]: 61200 nM | EC50 (Plasmodium falciparum [2]): 285 nM | EC50 (Plasmodium falciparum [3]): 48.4 nM

CCCC(C)C(C(=O)NCc1ccccc1)N1C(=O)c2cc(NC(C)=O)ccc2NC(=O)[C@@H]1c1ccccc1 (stereo partly specified)
CC50 [1]: 9210 nM | EC50 (Plasmodium falciparum [2]): > 1250 nM | EC50 (Plasmodium falciparum [3]): < 7.12 nM

O=S(=O)(NCCCCNc1ccnc2cc(Cl)ccc12)c1ccc2ccccc2c1
CC50 [1]: 6410 nM | EC50 (Plasmodium falciparum [2]): 268 nM | EC50 (Plasmodium falciparum [3]): 4.95 nM

Oc1ccc(-c2ccccc2)cc1CN1CCCCCC1
CC50 [1]: 67400 nM | EC50 (Plasmodium falciparum [2]): 242 nM | EC50 (Plasmodium falciparum [3]): 53.7 nM

COc1ccc(Cl)cc1NC(=O)CSC1=C(C#N)C(c2ccccc2)C(C(=O)Nc2ccccc2)=C(C)N1 (stereo unspecified)
CC50 [1]: > 100000 nM | EC50 (Plasmodium falciparum [2]): 3760 nM | EC50 (Plasmodium falciparum [3]): 1910 nM

Cc1ccc(-c2c3c(nc4sc(C(=O)Nc5cccc(C)c5)c(N)c24)CCC3)cc1
CC50 [1]: > 100000 nM | EC50 (Plasmodium falciparum [2]): 1010 nM | EC50 (Plasmodium falciparum [3]): 82.7 nM

COc1cc2nc(NCc3ccccn3)n3nc(-c4ccccc4)nc3c2cc1OC
CC50 [1]: > 100000 nM | EC50 (Plasmodium falciparum [2]): 3770 nM | EC50 (Plasmodium falciparum [3]): 1910 nM

CCOC(=O)C1=C(CC)NC2=C(C(=O)CCC2)C1c1ccc(N(C)C)cc1 (stereo unspecified)
CC50 [1]: > 100000 nM | EC50 (Plasmodium falciparum [2]): 8700 nM | EC50 (Plasmodium falciparum [3]): 1910 nM

CC(=O)c1ccc(-n2cc(C(=O)C(C)Oc3ccc(Cl)cc3Cl)nn2)cc1 (stereo unspecified)
CC50 [1]: > 10000 nM | EC50 (Plasmodium falciparum [2]): 72.9 nM | EC50 (Plasmodium falciparum [3]): 192 nM

COc1ccc(C2CC(=O)C3=C(C2)NC(C)=C(C(=O)OC2CCCC2)C3c2ccccc2F)cc1OC (stereo unspecified)
CC50 [1]: 14900 nM | EC50 (Plasmodium falciparum [2]): 40.4 nM | EC50 (Plasmodium falciparum [3]): 12 nM

CCOc1ccc(S(=O)(=O)N=C2C=C(Nc3ccc(O)cc3)C(=O)c3ccccc32)cc1
CC50 [1]: 7050 nM | EC50 (Plasmodium falciparum [2]): 158 nM | EC50 (Plasmodium falciparum [3]): 135 nM

Cc1cccc[n+]1CCCCCCCCCC[n+]1ccccc1C
CC50 [1]: > 100000 nM | EC50 (Plasmodium falciparum [2]): 102 nM | EC50 (Plasmodium falciparum [3]): 81.8 nM

O=[N+]([O-])c1ccc(N2CCCN(C(=S)Nc3ccccc3)CC2)nc1
CC50 [1]: > 100000 nM | EC50 (Plasmodium falciparum [2]): 91.5 nM | EC50 (Plasmodium falciparum [3]): 80.1 nM

COc1cncc(-c2cncc(-c3ccc(Oc4ccccc4)cc3)n2)c1
CC50 [1]: > 100000 nM | EC50 (Plasmodium falciparum [2]): 43.9 nM | EC50 (Plasmodium falciparum [3]): 79.8 nM

CCOC(=O)c1cnc2c(C)cccc2c1Nc1ccc(C(C)=O)cc1
CC50 [1]: > 100000 nM | EC50 (Plasmodium falciparum [2]): 119 nM | EC50 (Plasmodium falciparum [3]): 84.6 nM

COc1cc(CN(CCCN2CCOCC2)C(=O)Nc2cccc(C)c2)ccc1OCc1ccccc1
CC50 [1]: > 10000 nM | EC50 (Plasmodium falciparum [2]): > 1250 nM | EC50 (Plasmodium falciparum [3]): 8.39 nM

CC(C)(C)CC(=O)NCc1ccc(OC2CCN(CC(c3ccccc3)c3ccccc3)CC2)cc1
CC50 [1]: > 10000 nM | EC50 (Plasmodium falciparum [2]): 1160 nM | EC50 (Plasmodium falciparum [3]): < 8.77 nM

Cc1ccc2nc(Cl)c3cc(C(=O)Nc4ccc(CN5CCC(C)CC5)cc4)sc3c2c1
CC50 [1]: > 75800 nM | EC50 (Plasmodium falciparum [2]): 45.1 nM | EC50 (Plasmodium falciparum [3]): 64.9 nM

CC(C)CCN(CCC(C)C)CC(O)Cn1c2ccc(Cl)cc2c2cc(Cl)ccc21 (stereo unspecified)
CC50 [1]: > 100000 nM | EC50 (Plasmodium falciparum [2]): 292 nM | EC50 (Plasmodium falciparum [3]): 82.8 nM

Cc1ccn2c(NC(C)(C)CC(C)(C)C)c(-c3ccccc3OC(=O)c3cccc(F)c3)nc2c1
CC50 [1]: > 10000 nM | EC50 (Plasmodium falciparum [2]): 581 nM | EC50 (Plasmodium falciparum [3]): < 8.37 nM

O=C(NC1CCN(CC(O)CN(Cc2ccccc2)S(=O)(=O)c2ccccc2)C1)c1cccc2ccccc12 (stereo unspecified)
CC50 [1]: > 10000 nM | EC50 (Plasmodium falciparum [2]): 82.5 nM | EC50 (Plasmodium falciparum [3]): < 8.3 nM

Oc1ccc(CN2CCCCC2)nc1-c1ccccc1
CC50 [1]: > 100000 nM | EC50 (Plasmodium falciparum [2]): 241 nM | EC50 (Plasmodium falciparum [3]): 86.6 nM

Cc1ccn2c(NC(C)(C)CC(C)(C)C)c(-c3ccccc3OC(=O)C3CCCC3)nc2c1
CC50 [1]: > 10000 nM | EC50 (Plasmodium falciparum [2]): 1010 nM | EC50 (Plasmodium falciparum [3]): < 8.29 nM

O=C(NC1CCN(CC(O)CN(Cc2ccccc2)S(=O)(=O)c2ccccc2)C1)c1ccsc1 (stereo unspecified)
CC50 [1]: > 10000 nM | EC50 (Plasmodium falciparum [2]): 120 nM | EC50 (Plasmodium falciparum [3]): < 8.62 nM

CCOc1ccc(N(C(C)=O)C2=C(N3CCN(C)CC3)C(=O)c3ccccc3C2=O)cc1
CC50 [1]: 12900 nM | EC50 (Plasmodium falciparum [2]): 78.7 nM | EC50 (Plasmodium falciparum [3]): 10.9 nM

COc1ccc(C2CC(=O)C3=C(C2)NC(C)=C(C(=O)OC2CCCC2)C3c2ccc(Cl)cc2)cc1OC (stereo unspecified)
CC50 [1]: 21600 nM | EC50 (Plasmodium falciparum [2]): 29 nM | EC50 (Plasmodium falciparum [3]): 16.7 nM

O=c1c2ccccc2nc(C=Cc2ccc([N+](=O)[O-])o2)n1-c1ccc(Br)cc1
CC50 [1]: > 100000 nM | EC50 (Plasmodium falciparum [2]): > 12300 nM | EC50 (Plasmodium falciparum [3]): 1920 nM

CC[n+]1c(/C=C/c2ccc(Cl)cc2)ccc2ccccc21
CC50 [1]: > 10000 nM | EC50 (Plasmodium falciparum [2]): 60.8 nM | EC50 (Plasmodium falciparum [3]): < 8.16 nM

CCOc1ccc(C(=O)CN2C(=O)c3ccccc3OC(C(C)C)C2=O)cc1[N+](=O)[O-] (stereo unspecified)
CC50 [1]: > 100000 nM | EC50 (Plasmodium falciparum [2]): > 12500 nM | EC50 (Plasmodium falciparum [3]): 1920 nM

Cc1ccn2c(NC(C)(C)CC(C)(C)C)c(-c3ccccc3OC(=O)c3ccc(F)cc3)nc2c1
CC50 [1]: > 10000 nM | EC50 (Plasmodium falciparum [2]): 897 nM | EC50 (Plasmodium falciparum [3]): 8.7 nM

CC(=O)Nc1ccc2c(c1)CCCC2
CC50 [1]: > 10000 nM | EC50 (Plasmodium falciparum [2]): 1130 nM | EC50 (Plasmodium falciparum [3]): 191 nM

C=CC1CN2CCC1CC2[C@H](O)c1ccnc2ccc(OC)cc12 (stereo partly specified)
CC50 [1]: 56500 nM | EC50 (Plasmodium falciparum [2]): 11.2 nM | EC50 (Plasmodium falciparum [3]): 45.3 nM

O=C1NC(=S)NC1=Cc1ccc(C(F)(F)F)cc1
CC50 [1]: > 100000 nM | EC50 (Plasmodium falciparum [2]): > 12500 nM | EC50 (Plasmodium falciparum [3]): 1920 nM

CO[C@H]1[C@H](C)[C@@H]([C@H]2CC[C@H]([C@@H]3CC[C@H]([C@@]4(C)O[C@]5(O[C@H](C[C@@H]6O[C@](O)([C@@H](C)C(=O)O)[C@@H](C)[C@H](O[C@H]7CC[C@H](OC)[C@@H](C)O7)[C@@]6(C)OC)C[C@@H](OC)[C@H]5C)[C@H](C)[C@H]4OC)O3)O2)O[C@](C)(O)[C@@H]1C
CC50 [1]: 2420 nM | EC50 (Plasmodium falciparum [2]): 13.3 nM | EC50 (Plasmodium falciparum [3]): 1.93 nM

C[C@H](Nc1cncc(-c2ccc(Cl)cc2)n1)c1ccccc1
CC50 [1]: 71000 nM | EC50 (Plasmodium falciparum [2]): 53.7 nM | EC50 (Plasmodium falciparum [3]): 56.2 nM

CCCC(C)C(C(=O)Nc1c(C)cccc1C)N1C(=O)c2cc(NC(C)=O)ccc2NC(=O)[C@@H]1CCC(=O)O (stereo partly specified)
CC50 [1]: 8510 nM | EC50 (Plasmodium falciparum [2]): 1460 nM | EC50 (Plasmodium falciparum [3]): > 163 nM

CC(C)NC(=O)N1CCN(C(=O)C(Cc2c[nH]c3ccccc23)NC(=O)Nc2cccc(Cl)c2Cl)CC1C (stereo unspecified)
CC50 [1]: 57700 nM | EC50 (Plasmodium falciparum [2]): 27.2 nM | EC50 (Plasmodium falciparum [3]): 43.9 nM

CCOC(=O)C1=C(C)NC(=Cc2cc(C)n(-c3ccc(C)cc3C)c2C)C1=O
CC50 [1]: > 100000 nM | EC50 (Plasmodium falciparum [2]): 64.4 nM | EC50 (Plasmodium falciparum [3]): 78.5 nM

COC(=O)c1c(-c2c(F)cccc2Cl)noc1/C=C/Nc1ccccc1
CC50 [1]: > 10000 nM | EC50 (Plasmodium falciparum [2]): 272 nM | EC50 (Plasmodium falciparum [3]): 191 nM

Cc1ccc2c(c1)c(-c1ccccc1)c(-c1ccccc1)n2CC(O)CN1CCN(Cc2ccccc2)CC1 (stereo unspecified)
CC50 [1]: > 100000 nM | EC50 (Plasmodium falciparum [2]): 824 nM | EC50 (Plasmodium falciparum [3]): 84.5 nM
